Reference: US8946257B2, “N-containing heteroaryl derivatives as JAK3 kinase inhibitors” (Vectura Limited, priority 2009, dated 2015)
Counter-ions that a name gives are not always drawn.

What was measured:
[1] = molecular target: catalytic domain of human JAK3 (Homo sapiens, UniProt P52333); test: Inhibition of JAK3 activity (Z'-Lyte Kinase Assay kit-Tyr 6 Peptide); assay type: biochemical
Experimental: The inhibition of JAK3 kinase activity was determined in 384-well assay microplates using the Z′-Lyte® Kinase Assay kit-Tyr 6 Peptide kit, supplied by Invitrogan (Ref: PV4122), following the manufacturer's instructions.
(§1) In a final volume of 10 μL per well, 2.5 μL of the product to be tested dissolved in 4% DMSO (final concentration of the product to be tested, 0.1-10000 nM) was incubated with 0.3 μg/mL of the catalytic domain of human JAK3 (amino acid sequence 281-1124), 2 μM of the substrate peptide Z′-Lyte® Tyr 6 and 4 μM of ATP; all components were dissolved in 50 mM pH 7.5 Hepes buffer, 10 mM Magnesium chloride (II), 1 mM EGTA and 0.01% Brij® 35. The reaction was started by the addition of said 4 μM ATP; after incubation for 1 hour at 25° C., 5 μL of A Z′-Lyte® Tyr 6 development reagent was added and the mixture was incubated for 1 hour at 25° C. Phosphorylation was then quantified in each well using a Safire2® fluorescence microplate reader from Tecan.

[2] = molecular target: T1, catalytic domain of human JAK2 (Homo sapiens, UniProt O60674); test: Inhibition of JAK2 activity (Z'-Lyte Kinase Assay kit-Tyr 6 Peptide); assay type: biochemical
T1 construct: the catalytic domain of human JAK2
T1 sequence (O60674 849-1124 limits assumed): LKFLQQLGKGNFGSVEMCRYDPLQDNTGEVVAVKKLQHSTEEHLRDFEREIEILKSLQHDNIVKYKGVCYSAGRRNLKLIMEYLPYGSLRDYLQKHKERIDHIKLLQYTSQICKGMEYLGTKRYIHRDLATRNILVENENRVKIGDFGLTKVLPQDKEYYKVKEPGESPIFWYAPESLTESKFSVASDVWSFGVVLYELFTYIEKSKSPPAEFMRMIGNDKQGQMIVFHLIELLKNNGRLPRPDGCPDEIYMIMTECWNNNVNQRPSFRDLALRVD
Experimental: The inhibition of JAK2 kinase activity was determined in 384-well assay microplates using the Z′-Lyte® Kinase Assay kit-Tyr 6 Peptide kit, supplied by Invitrogen (Ref: PV4122), following the manufacturer's instructions.
as §1, with “with 0.5 μg/well” for “with 0.3 μg/mL”, “human JAK2,” for “human JAK3 (amino acid sequence 281-1124),”, “and 16” for “and 4”, “said 16” for “said 4”

Sequence of catalytic domain of human JAK3 (P52333 781-1124 limits assumed): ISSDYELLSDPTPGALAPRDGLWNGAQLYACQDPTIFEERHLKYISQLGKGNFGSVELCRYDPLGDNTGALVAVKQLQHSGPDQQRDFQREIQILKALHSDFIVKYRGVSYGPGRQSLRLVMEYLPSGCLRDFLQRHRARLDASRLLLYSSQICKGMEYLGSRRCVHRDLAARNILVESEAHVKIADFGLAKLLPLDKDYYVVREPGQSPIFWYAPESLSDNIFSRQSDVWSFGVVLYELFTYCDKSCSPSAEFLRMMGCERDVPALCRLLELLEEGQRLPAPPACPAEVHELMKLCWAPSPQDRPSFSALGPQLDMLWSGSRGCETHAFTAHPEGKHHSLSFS

Compound | inhibition at 1 µM [1] [%] | inhibition at 1 µM [2] [%]
Cn1c(=O)n(C2CCOCC2)c2nc(-c3cnn4ccc(C#N)cc34)ncc21 [Example 4, 3-(7-Methyl-8-oxo-9-tetrahydro-2H-pyran-4-yl-8,9-dihydro-7H-purin-2yl)pyrazolo[1,5-a]pyridine-5-carbonitrile] | > 50 | > 50
Cn1c(=O)n([C@H]2CC[C@H](O)CC2)c2nc(-c3cnn4ccc(C#N)cc34)ncc21 [Example 35, 3-(9-(trans-4-Hydroxycyclohexyl)-7-methyl-8-oxo-8,9-dihydro-7H-purin-2-yl)pyrazolo[1,5-a]pyridine-5-carbonitrile] | > 50 | 
CC(=O)OCn1c(=O)n([C@H]2CCCN(C(=O)CC#N)C2)c2nc(-c3cnn4ccccc34)ncc21 [Example 31, (S)-(9-(1-(2-Cyanoacetyl)piperidin-3-yl)-8-oxo-2-(pyrazolo[1,5-a]pyridin-3-yl)-8,9-dihydro-7H-purin-7-yl)methyl acetate] | > 50 | > 50
C[C@H](CO)n1c(=O)[nH]c2cnc(-c3cnn4ccc(C#N)cc34)nc21 [Example 28, (R)-3-(9-(1-Hydroxypropan-2-yl)-8-oxo-8,9-dihydro-7H-purin-2-yl)pyrazolo[1,5-a]pyridine-5-carbonitrile] | > 50 | 
N#Cc1ccn2ncc(-c3ccc4[nH]c(=O)n(C5CCOCC5)c4n3)c2c1 [Example 2, 3-(2-Oxo-3-(tetrahydro-2H-pyran-4-yl)-2,3-dihydro-1H-imidazo[4,5-b]pyridin-5-yl)pyrazolo[1,5-a]pyridine-5-carbonitrile] | > 50 | > 50
Cc1nc2ccc(-c3cnn4ccc(C#N)cc34)nc2n1C1CCOCC1 [Example 20, 3-(2-Methyl-3-(tetrahydro-2H-pyran-4-yl)-3H-imidazo[4,5-b]pyridin-5-yl)pyrazolo[1,5-a]pyridine-5-carbonitrile] | > 50 | > 50
Nc1nc2cnc(-c3cnn4ccccc34)nc2n1C1CCOCC1 [Example 33, 2-(Pyrazolo[1,5-a]pyridin-3-yl)-9-(tetrahydro-2H-pyran-4-yl)-9H-purin-8-amine] | > 50 | > 50
N#Cc1ccn2ncc(-c3ncc4[nH]c(=O)n(CC(=O)NCC(F)(F)F)c4n3)c2c1 [Example 36, 2-(2-(5-Cyanopyrazolo[1,5-a]pyridin-3-yl)-8-oxo-7H-purin-9(8H)-yl)-N-(2,2,2-trifluoroethyl)acetamide] | > 50 | 
O=C1CCCN1c1nc2cnc(-c3cnn4ccccc34)nc2n1C1CCOCC1 [Example 34, 1-(2-(Pyrazolo[1,5-a]pyridin-3-yl)-9-(tetrahydro-2H-pyran-4-yl)-9H-purin-8-yl)pyrrolidin-2-one] | > 50 | > 50
Cn1c(=O)n([C@H]2CCCN(C(=O)C3(C#N)CC3)C2)c2nc(-c3cnn4ccccc34)ccc21 [Example 25, (S)-1-(3-(1-Methyl-2-oxo-5-(pyrazolo[1,5-a]pyridin-3-yl)-1H-imidazo[4,5-b]pyridin-3(2H)-yl)piperidine-1-carbonyl)cyclopropanecarbonitrile] | > 50 | > 50
Cn1ccnc1-c1nc2cnc(-c3cnn4ccc(C#N)cc34)nc2n1C1CCOCC1 [Example 21, 3-(8-(1-Methyl-1H-imidazol-2-yl)-9-(tetrahydro-2H-pyran-4-yl)-9H-purin-2-yl)pyrazolo[1,5-a]pyridine-5-carbonitrile] | > 50 | 
Cc1ccn2ncc(-c3ncc4ncn([C@H]5CCCN(C(=O)CC#N)C5)c4n3)c2c1 [Example 29, (S)-3-(3-(2-(5-Methylpyrazolo[1,5-a]pyridin-3-yl)-9H-purin-9-yl)piperidin-1-yl)-3-oxopropanenitrile] | > 50 | > 50
Cn1c(=O)n(C2CCOCC2)c2nc(-c3cnc4ccccn34)ncc21 [Example 37, 2-(Imidazo[1,2-a]pyridin-3-yl)-7-methyl-9-(tetrahydro-2H-pyran-4-yl)-7H-purin-8(9H)-one] | > 50 | 
c1ccn2ncc(-c3ncc4nc(C5CCCC5)n(C5CCOCC5)c4n3)c2c1 [Example 23, 8-Cyclopentyl-2-(pyrazolo[1,5-a]pyridin-3-yl)-9-(tetrahydro-2H-pyran-4-yl)-9H-purine] | > 50 | > 50
C[C@H](CO)n1c(=O)n(C)c2cnc(-c3cnn4ccc(C#N)cc34)nc21 [Example 32, (R)-3-(9-(1-Hydroxypropan-2-yl)-7-methyl-8-oxo-8,9-dihydro-7H-purin-2-yl)pyrazolo[1,5-a]pyridine-5-carbonitrile] | > 50 | 
CC(=O)N1CCC[C@H](n2c(=O)n(C)c3ccc(-c4cnn5ccccc45)nc32)C1 [Example 24, (S)-3-(1-Acetylpiperidin-3-yl)-1-methyl-5-(pyrazolo[1,5-a]pyridin-3-yl)-1H-imidazo[4,5-b]pyridin-2(3H)-one] | > 50 | > 50
CCNc1nc2cnc(-c3cnn4ccc(C#N)cc34)nc2n1C1CCOCC1 [Example 22, 3-[8-(Ethylamino)-9-tetrahydro-2H-pyran-4-yl-9H-purin-2-yl]pyrazolo[1,5-a]pyridine-5-carbonitrile] | > 50 | > 50
N#Cc1ccn2ncc(-c3ncc4[nH]c(=O)n([C@H]5CCCN(C(=O)C6(C#N)CC6)C5)c4n3)c2c1 [Example 27, (S)-3-(9-(1-(1-Cyanocyclopropanecarbonyl)piperidin-3-yl)-8-oxo-8,9-dihydro-7H-purin-2-yl)pyrazolo[1,5-a]pyridine-5-carbonitrile] | > 50 | > 50
N#Cc1ccn2ncc(-c3ccc4ncn(C5CCOCC5)c4n3)c2c1 [Example 19, 3-(3-(Tetrahydro-2H-pyran-4-yl)-3H-imidazo[4,5-b]pyridin-5-yl)pyrazolo[1,5-a]pyridine-5-carbonitrile] |  | > 50

Now from value to compound:

inhibition at 1 µM [1] [%] | inhibition at 1 µM [2] [%] | Compound
> 50 | > 50 | O=c1[nH]c2ccc(-c3cnn4ccccc34)nc2n1C1CCOCC1 [Example 2e, 5-(pyrazolo[1,5-a]pyridin-3-yl)-3-(tetrahydro-2H-pyran-4-yl)-1H-imidazo[4,5-b]pyridin-2(3H)-one]
> 50 | > 50 | Cn1c(=O)n(C2CCOCC2)c2nc(-c3cnn4ccccc34)ccc21 [Example 5s, 1-methyl-5-(pyrazolo[1,5-a]pyridin-3-yl)-3-(tetrahydro-2H-pyran-4-yl)-1H-imidazo[4,5-b]pyridin-2(3H)-one]
> 50 | > 50 | CC(=O)N1CCC(n2c(=O)[nH]c3cnc(-c4cnn5ccc(C)cc45)nc32)CC1 [Example 1s, 9-(1-acetylpiperidin-4-yl)-2-(5-methylpyrazolo[1,5-a]pyridin-3-yl)-7H-purin-8(9H)-one]
> 50 |  | O=c1[nH]c2ccc(-c3cnn4ccccc34)nc2n1[C@H]1CCCNC1 [Example 6x, (S)-3-(piperidin-3-yl)-5-(pyrazolo[1,5-a]pyridin-3-yl)-1H-imidazo[4,5-b]pyridin-2(3H)-one hydrochloride]
 | > 50 | C[C@@H](C(=O)NCC(F)(F)F)n1c(=O)[nH]c2cnc(-c3cnn4ccc(C#N)cc34)nc21 [Example 15i]
 | > 50 | C[C@H](C(=O)N(C)C)n1c(=O)[nH]c2cnc(-c3cnn4ccc(C#N)cc34)nc21 [Example 15h]
 | > 50 | CCOC(=O)n1c(=O)n([C@H]2CCCN(C(=O)CC#N)C2)c2nc(-c3cnn4ccccc34)ncc21 [Example 26e]
